This experiment deals with Aβ42. As to the kind of experiment: In vitro cell screening assay; quantification of Aβ (1-42) peptide by sandwich ELISA. The format is cell-based. To be noted: Human neuroglioma H4 cells stably expressing human wild type APP751; compounds 0.003-10 μM, incubated overnight (16-18 h); Aβ42 in supernatant by sandwich ELISA; normalized to DMSO and DAPT; read-out: Aβ42 H4 Prot Fre IC50. Here is the method: Human neuroglioma H4 cells were transfected with a pcDNA3.1 plasmid expressing human wild type APP751 cDNA and a stable cell line was generated using G418 selection. Cells were plated at 15,000 cells/well in Costar 96-well plates and placed at 37° C. and 5% CO2. Six hours after plating, cells were washed three times with Pro293™ chemically defined medium, followed by addition of compounds (0.003-10 μM, final DMSO concentration of 0.33%). Plates were incubated overnight (16-18 h) and supernatant was removed for quantification of Aβ peptides by sandwich ELISA. Cytotoxicity was evaluated using Cell-Titer 96W AQueous One Solution Cell Proliferation Assay according to the manufacturer's protocol.
Aβ peptide levels were quantified by sandwich ELISA. 96-well plates were coated with C-terminal specific Aβ antibodies recognizing either Aβ37, Aβ38, Aβ40, Aβ42, Aβ43 or a N-terminal specific Aβ antibody to detect Aβ 1-x. Plates were then blocked overnight at 4° C. with 1% bovine serum albumin (BSA) in PBS-T. Plates were washed and 100 μl of cultured cell supernatant or synthetic Aβ peptide standards and a detection antibody (4G8-HRP) were applied to the blocked plate and incubated overnight at 4° C. The next day, wells were washed before the addition of detection substrate (TMB peroxidase). Plates were then read for absorbance at 450 nm on a Molecular Devices SpectraMax M5e Microplate Reader.
Compound-treated samples were normalized to samples treated with DMSO alone (no inhibition) and to samples treated with DAPT. IC50 values were calculated from values reported as percent of DMSO controls using nonlinear regression, based on a sigmoidal dose—response (variable slope) model. […] used for calculation.
Background: An ELISA detects its analyte on a solid surface through an enzyme-linked reagent.

For `COc1nc(C2=NOC(C)C(c3cn(C)c4ncc(C(F)(F)F)cc34)N2)ccc1-n1cnc(C)c1` (single isomer, unassigned; (-)) [44A or 45A, (−)-3-(6-methoxy-5-(4-methyl-1H-imidazol-1-yl)pyridin-2-yl)-6-methyl-5-(1-methyl-5-(trifluoromethyl)-1H-pyrrolo[2,3-b]pyridin-3-yl)-5,6-dihydro-4H-1,2,4-oxadiazine], the 50% inhibitory concentration (IC50) was 173 nM.
`COc1nc(C2=NOC(C)C(c3cn(C)c4ncc(C(F)(F)F)cc34)N2)ccc1-n1cnc(C)c1` (single isomer, unassigned; (-)) [44C or 45C, (−)-3-(6-methoxy-5-(4-methyl-1H-imidazol-1-yl)pyridin-2-yl)-6-methyl-5-(1-methyl-5-(trifluoromethyl)-1H-pyrrolo[2,3-b]pyridin-3-yl)-5,6-dihydro-4H-1,2,4-oxadiazine]: the IC50 was around 1380 nM.
For `COc1nc(C2=NOC(C)C(c3cn(C)c4cc(F)c(Cl)cc34)N2)ccc1-n1cnc(C)c1` (single isomer, unassigned; (-)) [Example 21A, (−)-5-(5-chloro-6-fluoro-1-methyl-1H-indol-3-yl)-3-(6-methoxy-5-(4-methyl-1H-imidazol-1-yl)pyridin-2-yl)-6-methyl-5,6-dihydro-4H-1,2,4-oxadiazine] the value was 65 nM.
Take `COc1nc(C2=NOC(C)C(c3cn(C)c4cc(F)c(Cl)cc34)N2)ccc1-n1cnc(C)c1` (single isomer, unassigned; (-)) [Example 21C, (−)-5-(5-chloro-6-fluoro-1-methyl-1H-indol-3-yl)-3-(6-methoxy-5-(4-methyl-1H-imidazol-1-yl)pyridin-2-yl)-6-methyl-5,6-dihydro-4H-1,2,4-oxadiazine]: the half-maximal inhibitory concentration (IC50) was 370 nM.
The figure for `COc1nc(C2=NOC(C)(C)C(c3ccccc3)N2)ccc1-n1cnc(C)c1` (single isomer, unassigned; (-)) [Example 22A, (−)-3-[6-methoxy-5-(4-methyl-1H-imidazol-1-yl)pyridin-2-yl]-6,6-dimethyl-5-phenyl-5,6-dihydro-4H-1,2,4-oxadiazine] is above 3000 nM; for `COc1nc(C2=NOC(C)(C)C(c3ccc(Cl)cc3)N2)ccc1-n1cnc(C)c1` (single isomer, unassigned; (-)) [Example 23A, (−)-5-(4-chlorophenyl)-3-[6-methoxy-5-(4-methyl-1H-imidazol-1-yl)pyridin-2-yl]-6,6-dimethyl-5,6-dihydro-4H-1,2,4-oxadiazine] it is 1140 nM.
Take `COc1nc(C2=NOC3(CC3)C(c3ccc(Cl)cc3)N2)ccc1-n1cnc(C)c1` (single isomer, unassigned; (-)) [Example 25A, (−)-8-(4-chlorophenyl)-6-[6-methoxy-5-(4-methyl-1H-imidazol-1-yl)pyridin-2-yl]-4-oxa-5,7-diazaspiro[2.5]oct-5-ene]: the IC50 turned out to be 2600 nM.
As to `COc1nc(C2=NOCC(C)(c3cn(C)c4ccccc34)N2)ccc1-n1cnc(C)c1` (single isomer, unassigned; (-)) [Example 26B, (−)-3-[3-[6-methoxy-5-(4-methyl-1H-imidazol-1-yl)pyridin-2-yl]-5-methyl-5,6-dihydro-4H-1,2,4-oxadiazin-5-yl]-1-methyl-1H-indole], the IC50 was found to be 310 nM.
For `COc1nc(C2=NOCC(c3c4n(c5ccc(Cl)cc35)CCOC4)N2)ccc1-n1cnc(C)c1` (single isomer, unassigned; (-)) [Example 28B, (−)-8-chloro-10-(3-(6-methoxy-5-(4-methyl-1H-imidazol-1-yl)pyridin-2-yl)-5,6-dihydro-4H-1,2,4-oxadiazin-5-yl)-3,4-dihydro-1H-[1,4]oxazino[4,3-a]indole] the value was 61.8 nM.
As to `COc1nc(C2=NOCC(c3cn(C)c4ccc(C5CCOCC5)cc34)N2)ccc1-n1cnc(C)c1` (single isomer, unassigned; (-)) [Example 29A, (−)-3-(6-methoxy-5-(4-methyl-1H-imidazol-1-yl)pyridin-2-yl)-5-(1-methyl-5-(tetrahydro-2H-pyran-4-yl)-1H-indol-3-yl)-5,6-dihydro-4H-1,2,4-oxadiazine], the concentration for half-maximal inhibition (IC50) came to 663 nM.
For the molecule `COc1nc(C2=NOCC(c3c4n(c5ccccc35)CCOC4)N2)ccc1-n1cnc(C)c1` (single isomer, unassigned; (-)) [Example 30A, (−)-10-(3-(6-methoxy-5-(4-methyl-1H-imidazol-1-yl)pyridin-2-yl)-5,6-dihydro-4H-1,2,4-oxadiazin-5-yl)-3 ,4-dihydro-1H-[1,4]oxazino[4,3-a]indole], the IC50 worked out at 323 nM.
For the molecule `COc1nc(C2=NOC(C)C(c3cn(C)c4cc(F)c(F)cc34)N2)ccc1-n1cnc(C)c1` (single isomer, unassigned; (-)) [Example 39B, (−)-5-(5,6-difluoro-1-methyl-1H-indol-3-yl)-3-(6-methoxy-5-(4-methyl-1H-imidazol-1-yl)pyridin-2-yl)-6-methyl-5,6-dihydro-4H-1,2,4-oxadiazine], the 50% inhibitory concentration (IC50) was 70.4 nM.
Turning to `COc1nc(C2=NOC(C)C(c3cn(C)c4cc(F)c(F)cc34)N2)ccc1-n1cnc(C)c1` (single isomer, unassigned; (-)) [Example 39C, (−)-5-(5,6-difluoro-1-methyl-1H-indol-3-yl)-3-(6-methoxy-5-(4-methyl-1H-imidazol-1-yl)pyridin-2-yl)-6-methyl-5,6-dihydro-4H-1,2,4-oxadiazine], the IC50 stood at 729 nM.
With `COc1nc(C2=NOC(C)C(c3ccc(Cl)cc3)N2)ccc1-n1cnc(Cl)c1` (single isomer, unassigned; (-)) [Example 42A, (−)-3-(5-(4-chloro-1H-imidazol-1-yl)-6-methoxypyridin-2-yl)-5-(4-chlorophenyl)-6-methyl-5,6-dihydro-4H-1,2,4-oxadiazine], the concentration for half-maximal inhibition (IC50) is above 3000 nM.
As to `COc1cc(C2=NOC(C)C(c3ccc(Cl)cc3)N2)ccc1-n1cnc(C)c1` (single isomer, unassigned; (-)) [Example 43A, (−)-5-(4-chlorophenyl)-3-(3-methoxy-4-(4-methyl-1H-imidazol-1-yl)phenyl)-6-methyl-5,6-dihydro-4H-1,2,4-oxadiazine], the IC50 is above 3000 nM.
For the molecule `COc1nc(C2=NOC(C)C(c3cccc(Cl)c3)N2)ccc1-n1cnc(Cl)c1` (single isomer, unassigned; (-)) [Example 47A, (−)-3-(5-(4-chloro-1H-imidazol-1-yl)-6-methoxypyridin-2-yl)-5-(3-chlorophenyl)-6-methyl-5,6-dihydro-4H-1,2,4-oxadiazine], the concentration for half-maximal inhibition (IC50) is above 3000 nM.
As for `COc1nc(C2=NOC(C)C(c3ccc(Cl)cc3)N2)ccc1-c1ccnc(C)c1` (single isomer, unassigned; (-)) [Example 48A, (−)-5-(4-chlorophenyl)-3-(2-methoxy-2′-methyl-[3,4′-bipyridin]-6-yl)-6-methyl-5,6-dihydro-4H-1,2,4-oxadiazine], the IC50 stood at 438 nM.
For `COc1nc(C2=NOC(C)C(c3cccc(Cl)c3)N2)ccc1-c1ccnc(C)c1` (single isomer, unassigned; (-)) [Example 49A, (−)-5-(3-chlorophenyl)-3-(2-methoxy-2′-methyl-[3,4′-bipyridin]-6-yl)-6-methyl-5,6-dihydro-4H-1,2,4-oxadiazine] the value was 548 nM.
The figure for `COc1nc(C2=NOC(C)C(c3c4n(c5ccc(Cl)cc35)CCOC4)N2)ccc1-n1cnc(C)c1` (single isomer, unassigned; (-)) [Example 50B, (−)-8-chloro-10-(3-(6-methoxy-5-(4-methyl-1H-imidazol-1-yl)pyridin-2-yl)-6-methyl-5,6-dihydro-4H-1,2,4-oxadiazin-5-yl)-3,4-dihydro-1H-[1,4] oxazino [4,3-a] indole] is 27 nM.
For `COc1nc(C2=NOC(C)C(c3c4n(c5ccc(Cl)cc35)CCOC4)N2)ccc1-n1cnc(C)c1` (single isomer, unassigned; (-)) [Example 50C, (−)-8-chloro-10-(3-(6-methoxy-5-(4-methyl-1H-imidazol-1-yl)pyridin-2-yl)-6-methyl-5,6-dihydro-4H-1,2,4-oxadiazin-5-yl)-3,4-dihydro-1H-[1,4] oxazino [4,3-a] indole] the value was 352 nM.
With `COc1nc(C2=NOC(C)C(c3cn(C)c4ncc(F)c(F)c34)N2)ccc1-n1cnc(C)c1` (single isomer, unassigned; (-)) [Example 51B, (−)-5-(4,5-difluoro-1-methyl-1H-pyrrolo [2,3-b]pyridin-3-yl)-3-(6-methoxy-5-(4-methyl-1H-imidazol-1-yl)pyridin-2-yl)-6-methyl-5,6-dihydro-4H-1,2,4-oxadiazine], the IC50 turned out to be 218 nM.
For `COc1nc(C2=NOC(C)C(c3cn(C)c4ccc(F)c(F)c34)N2)ccc1-n1cnc(C)c1` (single isomer, unassigned; (-)) [Example 52A, (−)-5-(4,5-difluoro-1-methyl-1H-indol-3-yl)-3-(6-methoxy-5-(4-methyl-1H-imidazol-1-yl)pyridin-2-yl)-6-methyl-5,6-dihydro-4H-1,2,4-oxadiazine] the value was 84 nM.

As a reminder, the IC50 is the point on the concentration scale where inhibition reaches its midpoint.
